Measured values taken from PMC4978154, “Phase I metabolites of mephedrone display biological activity as substrates at monoamine transporters” (British Journal of Pharmacology, 2016).
pEC50: −log10 of the molar value. Read-outs that look alike come from different tables or passages of the source.

How the values were obtained:
DAT = target: T1, DAT (Rattus norvegicus, UniProt P23977); assay: Transporter release assay in rat brain synaptosomes, DAT; type: biochemical; settings: [3H]-MPP+, mean (95% confidence interval)
T1 construct: a native tissue preparation that contains plasma membrane transporters in situ; from tissue; host or cells: rat striatum synaptosomes
Description: The ability of mephedrone and its metabolites to evoke release via DAT, NET and SERT was determined in rat brain synaptosomes as previously described (Baumann et al., 2012). Rats were killed with CO2, decapitated, and brains were rapidly removed and dissected on ice. Synaptosomes were prepared from striatum for DAT assays, whereas synaptosomes were prepared from whole brain minus striatum and cerebellum for the NET and SERT assays. [^3H]‐MPP^+ (9 nM) was used as the radiolabelled substrate for DAT and NET, whereas [^3H]‐5‐HT (5 nM) was used as the radiolabelled substrate for SERT. All buffers used in the release assays contained 1 μM reserpine to block vesicular uptake of substrates. The selectivity of assays was optimized for a single transporter by including unlabelled compounds [nomifensine and 1‐(2‐diphenylmethoxyethyl)‐4‐(3‐phenylpropyl)piperazine dihydrochloride (GBR12935) for SERT; GBR12935 and citalopram for NET; citalopram and desipramine for DAT] to prevent the uptake of [^3H]‐MPP^+ or [^3H]‐5‐HT by competing transporters. Synaptosomes were preloaded with radiolabelled substrate in Krebs‐phosphate buffer, which consisted of 126 mM NaCl, 2.4 mM KCl, 0.5 mM KH2PO4, 1.1 mM CaCl2, 0.83 mM MgCl2, 0.5 mM Na2SO4, 11.1 mM glucose, 13.7 mM Na2HPO4, 1 mg·mL^−1 ascorbic acid and 50 μM pargyline (pH = 7.4) for 1 h (steady state). […] Assays were terminated by vacuum filtration, and retained radioactivity was quantified by liquid scintillation counting.
Calculations were performed using Microsoft Excel® 2010 (Microsoft Corporation, Redmond, WA, USA) and GRAPHPAD PRISM 5.0. […] IC50 values for uptake inhibition and EC50 values for release were determined by nonlinear regression fits. Release data expressed as AUC were analysed by one‐way ANOVA followed by Bonferroni's multiple comparison test. Microdialysis and locomotor data were analysed by two‐way ANOVA (drug treatment × time) followed by Bonferroni's test. The effect of monensin treatment on basal efflux of tritiated substrate was analysed with the Mann–Whitney test. […]

[1] = tested on: extracellular dopamine in rat nucleus accumbens; assay: Microdialysis in rat nucleus accumbens, dialysate dopamine; type: in vivo; settings: versus saline
Description: In vivo microdialysis procedures were carried out as previously described with minor modifications (Baumann et al., 2012). Briefly, male rats anaesthetized with sodium pentobarbital (60 mg·kg^−1, i.p.) received surgically implanted jugular catheters, and intracerebral guide cannulae aimed at the nucleus accumbens (AP +1.6 mm, ML −1.7 mm relative to bregma; −6.2 mm relative to dura) (Paxinos and Watson, 2007). After a 7–10 day recovery, each rat was placed into a chamber equipped with photobeams for the detection of motor parameters (TruScan, Harvard Apparatus, Holliston, MA, USA) and allowed to acclimatize overnight. Food and water were available ad libitum during the acclimatization period. On the following morning, catheters were attached to PE 50 extension tubes, and 0.5 × 2 mm microdialysis probes (CMA/12, Harvard Apparatus, Holliston, MA, USA) were inserted into the guide cannulae. Ringers' solution (150 mM NaCl, 2.8 mM KCl and 2.0 mM CaCl2) was perfused through the probes at 0.6 μL·min^−1 for 3 h. To commence experiments, dialysate samples ([…]) were collected at 20 min intervals, and drug or saline treatments were given after three baseline samples were obtained. Rats received two sequential i.v. injections of mephedrone or its metabolites, with 1 mg·kg^−1 administered at time zero, followed by 3 mg·kg^−1 60 min later. Saline was administered using the same schedule in a separate group of rats. Dialysate concentrations of dopamine and 5‐HT were quantified using HPLC coupled to electrochemical detection (Baumann et al., 2012). Chromatographic data were exported to an Empower software system (Waters, Inc., Milford, MA, USA) for peak identification, integration and analysis.
Correct probe placements were assessed after the microdialysis experiments. Rats were killed by CO2 narcosis then decapitated. Brains were quickly removed and immersion fixed in 10% paraformaldehyde for 1 week. Subsequently, brains were sectioned on a cryostat, and the location of each probe tip was verified by inspection of photographic images of the brain taken with a digital camera using the macro lens setting.
Calculations were performed using Microsoft Excel® 2010 (Microsoft Corporation, Redmond, WA, USA) and GRAPHPAD PRISM 5.0. (GraphPad Software Inc., La Jolla, CA, USA). IC50 values for uptake inhibition and EC50 values for release were determined by nonlinear regression fits. Release data expressed as AUC were analysed by one‐way ANOVA followed by Bonferroni's multiple comparison test. Microdialysis and locomotor data were analysed by two‐way ANOVA (drug treatment × time) followed by Bonferroni's test. The effect of monensin treatment on basal efflux of tritiated substrate was analysed with the Mann–Whitney test. P values less than 0.05 (i.e. P < 0.05) were considered significant. The data and statistical analysis comply with the recommendations on experimental design and analysis in pharmacology (Curtis et al., 2015).

[2] = EC50 on transporter mediated efflux, DAT
[3] = 3 mg·kg−1 i.v. (60 min after 1 mg·kg−1)

T1 sequence (P23977 whole entry): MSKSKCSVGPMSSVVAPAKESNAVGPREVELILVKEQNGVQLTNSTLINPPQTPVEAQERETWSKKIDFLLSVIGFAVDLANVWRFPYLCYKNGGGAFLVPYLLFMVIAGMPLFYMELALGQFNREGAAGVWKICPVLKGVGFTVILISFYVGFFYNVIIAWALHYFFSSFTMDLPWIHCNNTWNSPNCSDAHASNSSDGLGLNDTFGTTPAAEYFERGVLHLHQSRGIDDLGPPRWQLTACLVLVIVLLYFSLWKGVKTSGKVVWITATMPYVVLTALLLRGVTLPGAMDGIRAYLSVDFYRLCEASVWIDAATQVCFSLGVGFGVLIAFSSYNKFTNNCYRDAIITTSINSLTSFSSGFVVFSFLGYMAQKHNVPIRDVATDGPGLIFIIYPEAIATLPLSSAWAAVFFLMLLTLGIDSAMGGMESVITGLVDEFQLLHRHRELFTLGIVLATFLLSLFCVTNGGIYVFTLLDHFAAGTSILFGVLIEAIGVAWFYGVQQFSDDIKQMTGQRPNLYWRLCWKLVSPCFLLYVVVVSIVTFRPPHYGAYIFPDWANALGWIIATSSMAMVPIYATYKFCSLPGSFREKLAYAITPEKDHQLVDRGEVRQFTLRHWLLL

Row | Structure (SMILES) | pEC50 (DAT; [2]) | effect on dialysate dopamine ([1]; 1 mg·kg−1 i.v.) | effect on dialysate dopamine [1, 3] | pEC50 (DAT; read-out: EC50 on transporter mediated efflux, DAT)
1 | CNC(C)C(=O)c1ccc(C)cc1.Cl (centres unmarked) [Mephedrone, 2‐Methylamino‐1‐(p‐tolyl)propan‐1‐one hydrochloride] | 7.28 | increased dopamine | elevated dopamine | 
2 | CNC(C)C(=O)c1ccc(CO)cc1.Cl (centres unmarked) [4‐OH‐mephedrone, 1‐(4‐(hydroxymethyl)phenyl)‐2‐(methylamino)propan‐1‐one hydrochloride] |  | no significant impact | no significant impact | 6.72
3 | Cc1ccc(C(=O)C(C)N)cc1.Cl (centres unmarked) [Nor‐mephedrone, 2‐amino‐1‐(p‐tolyl)propan‐1‐one hydrochloride] | 6.66 |  | elevated dopamine | 
